{
  "source": "patent US12473278B2",
  "about": "(Industry—University Cooperation Foundation Hangyang …, priority 2019, dated 2025)",
  "key": {"[1]": {"target": "BRAF (V599E) (Homo sapiens (Human), UniProt P15056, V600E)", "sequence (P15056 whole entry V600E, species assumed)": "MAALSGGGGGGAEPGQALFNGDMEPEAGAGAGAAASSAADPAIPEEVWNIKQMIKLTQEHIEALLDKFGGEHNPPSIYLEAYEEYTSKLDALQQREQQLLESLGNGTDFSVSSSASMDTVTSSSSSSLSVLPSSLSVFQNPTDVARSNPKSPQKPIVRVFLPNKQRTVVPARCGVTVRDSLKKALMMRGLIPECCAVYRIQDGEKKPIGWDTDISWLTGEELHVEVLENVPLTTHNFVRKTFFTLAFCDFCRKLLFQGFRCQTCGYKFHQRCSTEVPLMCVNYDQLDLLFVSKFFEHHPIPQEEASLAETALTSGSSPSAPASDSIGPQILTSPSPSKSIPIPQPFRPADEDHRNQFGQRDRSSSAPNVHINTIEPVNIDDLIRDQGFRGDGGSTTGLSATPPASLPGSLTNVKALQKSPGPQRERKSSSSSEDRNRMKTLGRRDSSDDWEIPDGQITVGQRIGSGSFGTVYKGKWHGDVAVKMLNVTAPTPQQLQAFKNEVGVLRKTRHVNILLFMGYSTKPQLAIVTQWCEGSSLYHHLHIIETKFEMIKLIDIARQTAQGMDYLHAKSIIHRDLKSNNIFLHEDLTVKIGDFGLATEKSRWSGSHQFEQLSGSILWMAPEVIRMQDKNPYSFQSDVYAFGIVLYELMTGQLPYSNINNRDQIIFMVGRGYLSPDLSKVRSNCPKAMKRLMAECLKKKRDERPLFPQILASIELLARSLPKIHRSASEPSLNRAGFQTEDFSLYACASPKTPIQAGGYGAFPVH", "assay": "Kinase panel screening", "conditions": "read-out: % inhibition rate", "quoted_text": "(§1) Measurement of Inhibitory Activity Against Various Protein Kinases"}, "[2]": {"target": "Aurora A (Homo sapiens (Human), UniProt O14965)", "assay": "Kinase panel screening", "conditions": "read-out: % inhibition rate", "quoted_text": "as §1"}, "[3]": {"target": "GSK3b (Homo sapiens (Human), UniProt P49841)", "assay": "Kinase panel screening", "assay_type": "biochemical", "conditions": "read-out: % inhibition rate"}, "[4]": {"target": "PLK1 (Homo sapiens (Human), UniProt P53350)", "sequence (P53350 whole entry)": "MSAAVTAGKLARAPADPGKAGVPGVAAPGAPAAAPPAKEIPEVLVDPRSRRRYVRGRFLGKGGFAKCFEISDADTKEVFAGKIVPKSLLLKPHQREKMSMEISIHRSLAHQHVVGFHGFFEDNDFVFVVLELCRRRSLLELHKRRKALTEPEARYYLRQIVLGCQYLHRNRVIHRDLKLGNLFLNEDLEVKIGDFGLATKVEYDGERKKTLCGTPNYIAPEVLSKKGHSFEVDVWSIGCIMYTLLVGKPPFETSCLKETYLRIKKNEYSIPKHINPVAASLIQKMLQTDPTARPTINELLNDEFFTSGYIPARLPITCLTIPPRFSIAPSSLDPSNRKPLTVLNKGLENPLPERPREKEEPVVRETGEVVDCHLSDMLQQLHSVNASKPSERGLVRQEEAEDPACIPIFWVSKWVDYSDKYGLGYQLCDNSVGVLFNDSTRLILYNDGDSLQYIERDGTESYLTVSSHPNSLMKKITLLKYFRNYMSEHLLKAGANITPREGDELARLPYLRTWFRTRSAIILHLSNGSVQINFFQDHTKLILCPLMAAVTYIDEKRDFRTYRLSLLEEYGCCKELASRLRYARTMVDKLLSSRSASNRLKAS", "assay": "Kinase panel screening", "assay_type": "biochemical", "conditions": "read-out: % inhibition rate"}, "[5]": {"target": "FMS (Homo sapiens (Human), UniProt P07333)", "assay": "Kinase panel screening", "assay_type": "biochemical", "conditions": "read-out: % inhibition rate"}, "[6]": {"target": "T1, FLT3 (Homo sapiens (Human), UniProt P36888)", "T1 sequence (P36888 27-993)": "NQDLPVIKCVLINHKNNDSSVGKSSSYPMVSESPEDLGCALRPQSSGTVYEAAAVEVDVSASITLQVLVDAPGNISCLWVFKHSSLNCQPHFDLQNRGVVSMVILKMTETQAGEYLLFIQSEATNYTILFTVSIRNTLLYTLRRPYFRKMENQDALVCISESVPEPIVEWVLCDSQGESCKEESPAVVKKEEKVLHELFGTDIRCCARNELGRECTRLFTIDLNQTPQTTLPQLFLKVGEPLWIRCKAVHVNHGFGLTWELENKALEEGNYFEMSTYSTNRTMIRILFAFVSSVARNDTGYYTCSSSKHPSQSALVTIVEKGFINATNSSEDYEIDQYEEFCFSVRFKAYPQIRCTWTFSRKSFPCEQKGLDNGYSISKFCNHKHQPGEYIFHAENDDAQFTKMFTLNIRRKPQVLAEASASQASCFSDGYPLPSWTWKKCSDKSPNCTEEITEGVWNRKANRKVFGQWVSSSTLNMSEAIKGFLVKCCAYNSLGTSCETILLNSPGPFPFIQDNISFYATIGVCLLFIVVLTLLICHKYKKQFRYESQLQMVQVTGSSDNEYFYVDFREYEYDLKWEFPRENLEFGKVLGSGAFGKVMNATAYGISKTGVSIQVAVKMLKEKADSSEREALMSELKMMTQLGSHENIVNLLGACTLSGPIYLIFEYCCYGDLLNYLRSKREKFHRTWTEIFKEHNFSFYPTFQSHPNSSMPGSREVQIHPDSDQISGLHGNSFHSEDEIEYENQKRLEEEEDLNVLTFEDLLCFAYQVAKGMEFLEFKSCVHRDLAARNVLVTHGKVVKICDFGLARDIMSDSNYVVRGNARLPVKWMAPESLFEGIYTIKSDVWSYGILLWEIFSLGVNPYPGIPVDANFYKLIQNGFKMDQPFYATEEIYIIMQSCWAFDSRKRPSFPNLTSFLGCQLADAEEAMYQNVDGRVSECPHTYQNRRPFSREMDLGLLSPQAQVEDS", "assay": "Kinase panel screening", "conditions": "read-out: % inhibition rate", "quoted_text": "as §1"}, "[7]": {"target": "FGFR3 (Homo sapiens (Human), UniProt P22607)", "assay": "Kinase panel screening", "conditions": "read-out: % inhibition rate", "quoted_text": "as §1"}, "[8]": {"target": "BTK (Homo sapiens (Human), UniProt Q06187)", "assay": "Kinase panel screening", "conditions": "read-out: % inhibition rate", "quoted_text": "as §1"}, "[9]": {"target": "ROS/ROS1 (Homo sapiens (Human), UniProt P08922)", "assay": "Kinase panel screening", "conditions": "read-out: % inhibition rate", "quoted_text": "as §1"}, "[10]": {"target": "c-MET (Homo sapiens (Human), UniProt P08581)", "assay": "Kinase panel screening", "conditions": "read-out: % inhibition rate", "quoted_text": "as §1"}, "[11]": {"target": "LYN (Homo sapiens (Human), UniProt P07948)", "assay": "Kinase panel screening", "conditions": "read-out: % inhibition rate", "quoted_text": "as §1"}, "[12]": {"target": "CDK1/cyclinB (Homo sapiens (Human), UniProt P06493)", "assay": "Kinase panel screening", "conditions": "read-out: % inhibition rate", "quoted_text": "as §1"}, "[13]": {"target": "FLT1/VEGFR1 (Homo sapiens (Human), UniProt P17948)", "sequence (P17948 27-1338)": "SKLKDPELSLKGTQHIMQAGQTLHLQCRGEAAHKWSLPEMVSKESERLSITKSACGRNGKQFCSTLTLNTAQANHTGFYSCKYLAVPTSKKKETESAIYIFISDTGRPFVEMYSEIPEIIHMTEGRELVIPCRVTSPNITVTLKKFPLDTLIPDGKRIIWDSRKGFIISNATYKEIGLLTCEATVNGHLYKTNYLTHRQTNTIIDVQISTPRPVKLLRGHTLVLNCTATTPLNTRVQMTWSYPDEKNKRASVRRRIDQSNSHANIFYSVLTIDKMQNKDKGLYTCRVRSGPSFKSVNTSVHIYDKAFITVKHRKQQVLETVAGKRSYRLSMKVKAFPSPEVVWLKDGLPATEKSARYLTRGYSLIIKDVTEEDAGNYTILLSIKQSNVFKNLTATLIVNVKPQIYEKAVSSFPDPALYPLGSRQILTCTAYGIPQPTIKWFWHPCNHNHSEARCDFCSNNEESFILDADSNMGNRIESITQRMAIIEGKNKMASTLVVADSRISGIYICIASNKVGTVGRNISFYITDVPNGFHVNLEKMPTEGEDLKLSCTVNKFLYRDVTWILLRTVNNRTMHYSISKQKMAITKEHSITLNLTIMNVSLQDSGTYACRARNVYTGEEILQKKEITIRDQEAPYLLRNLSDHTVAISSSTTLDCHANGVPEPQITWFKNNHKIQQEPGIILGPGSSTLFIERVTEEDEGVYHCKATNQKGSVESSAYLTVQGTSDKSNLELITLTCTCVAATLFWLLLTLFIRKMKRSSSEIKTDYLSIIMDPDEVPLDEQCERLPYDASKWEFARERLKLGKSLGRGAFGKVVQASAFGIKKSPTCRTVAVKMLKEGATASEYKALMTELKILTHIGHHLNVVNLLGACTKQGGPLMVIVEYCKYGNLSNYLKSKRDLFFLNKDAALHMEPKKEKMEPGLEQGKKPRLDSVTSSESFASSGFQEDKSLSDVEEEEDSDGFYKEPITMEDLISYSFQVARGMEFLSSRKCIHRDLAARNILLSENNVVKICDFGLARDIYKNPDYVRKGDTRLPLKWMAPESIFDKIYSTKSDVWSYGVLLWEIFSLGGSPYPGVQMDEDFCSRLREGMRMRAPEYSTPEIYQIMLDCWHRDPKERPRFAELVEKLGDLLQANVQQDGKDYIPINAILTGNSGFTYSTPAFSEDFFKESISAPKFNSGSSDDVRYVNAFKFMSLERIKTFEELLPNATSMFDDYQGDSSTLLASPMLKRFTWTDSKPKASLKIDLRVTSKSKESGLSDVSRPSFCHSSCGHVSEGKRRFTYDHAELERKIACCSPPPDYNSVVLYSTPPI", "assay": "Kinase panel screening", "conditions": "read-out: % inhibition rate", "quoted_text": "as §1"}, "[14]": {"target": "P38a/MAPK14 (Homo sapiens (Human), UniProt Q16539)", "sequence (Q16539 whole entry)": "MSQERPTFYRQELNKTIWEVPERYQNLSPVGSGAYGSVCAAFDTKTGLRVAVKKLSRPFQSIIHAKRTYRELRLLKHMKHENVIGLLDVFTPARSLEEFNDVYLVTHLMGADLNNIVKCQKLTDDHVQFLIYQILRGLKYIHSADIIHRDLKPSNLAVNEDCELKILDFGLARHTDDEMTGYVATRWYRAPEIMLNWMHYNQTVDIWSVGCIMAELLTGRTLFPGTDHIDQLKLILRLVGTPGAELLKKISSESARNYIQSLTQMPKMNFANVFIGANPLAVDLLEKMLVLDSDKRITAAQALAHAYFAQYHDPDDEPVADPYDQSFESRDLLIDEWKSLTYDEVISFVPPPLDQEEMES", "assay": "Kinase panel screening", "conditions": "read-out: % inhibition rate", "quoted_text": "as §1"}, "[15]": {"target": "RON/MSTIR (Homo sapiens (Human), UniProt Q04912)", "assay": "Kinase panel screening", "conditions": "read-out: % inhibition rate", "quoted_text": "as §1"}, "[16]": {"target": "IGFIR (Homo sapiens (Human), UniProt P08069)", "assay": "Kinase panel screening", "conditions": "read-out: % inhibition rate", "quoted_text": "as §1"}, "[17]": {"target": "EGFR (Homo sapiens (Human), UniProt P00533)", "assay": "Kinase panel screening", "conditions": "read-out: % inhibition rate", "quoted_text": "as §1"}, "[18]": {"target": "AKT1 (Homo sapiens (Human), UniProt P31749)", "assay": "Kinase panel screening", "conditions": "read-out: % inhibition rate", "quoted_text": "as §1"}, "[19]": {"target": "CDK2/cyclin E (Homo sapiens (Human), UniProt P24941)", "assay": "Kinase panel screening", "assay_type": "biochemical", "conditions": "read-out: % inhibition rate"}, "[20]": {"target": "RAFI (Homo sapiens (Human), UniProt P04049)", "assay": "Kinase panel screening", "conditions": "read-out: % inhibition rate", "quoted_text": "as §1"}, "[21]": {"target": "c-Kit (Homo sapiens (Human), UniProt P10721)", "assay": "Kinase panel screening", "conditions": "read-out: % inhibition rate", "quoted_text": "as §1"}, "[22]": {"target": "BRAF (Homo sapiens (Human), UniProt P15056)", "sequence (P15056 whole entry, species assumed)": "as the sequence (P15056 whole entry V600E, species assumed) above, with E600V counted along it", "assay": "Kinase panel screening", "conditions": "read-out: % inhibition rate", "quoted_text": "as §1"}, "[23]": {"target": "T1, FLT3", "assay": "Measurement of FLT3 enzyme activity", "assay_type": "biochemical", "from_the_text": "Measurement of FLT3 Enzyme Activity\nA change in FLT3 enzyme activity by treatment with the benzimidazole derivatives of the following Table 1 according to the present invention was confirmed by IC50."}, "[24]": {"target": "LCK (Homo sapiens (Human), UniProt P06239)", "sequence (P06239 whole entry)": "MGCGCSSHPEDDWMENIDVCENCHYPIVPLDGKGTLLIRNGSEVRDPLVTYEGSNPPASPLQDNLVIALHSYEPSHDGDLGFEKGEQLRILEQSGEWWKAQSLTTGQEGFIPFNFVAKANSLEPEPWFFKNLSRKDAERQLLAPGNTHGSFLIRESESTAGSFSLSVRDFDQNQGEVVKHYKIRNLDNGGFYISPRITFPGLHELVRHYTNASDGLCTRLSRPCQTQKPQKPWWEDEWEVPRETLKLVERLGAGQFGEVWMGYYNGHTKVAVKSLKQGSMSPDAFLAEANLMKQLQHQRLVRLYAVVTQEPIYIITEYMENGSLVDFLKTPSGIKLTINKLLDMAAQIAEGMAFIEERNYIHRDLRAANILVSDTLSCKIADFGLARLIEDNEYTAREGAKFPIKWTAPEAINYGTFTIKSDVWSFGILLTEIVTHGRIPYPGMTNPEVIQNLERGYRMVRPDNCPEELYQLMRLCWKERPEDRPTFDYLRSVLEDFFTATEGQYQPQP", "assay": "Kinase panel screening", "assay_type": "biochemical", "conditions": "read-out: % inhibition rate"}, "[25]": {"target": "PKA (Homo sapiens (Human), UniProt P17612)", "assay": "Kinase panel screening", "conditions": "read-out: % inhibition rate", "quoted_text": "as §1"}, "[26]": {"target": "c-Src (Homo sapiens (Human), UniProt P12931)", "assay": "Kinase panel screening", "conditions": "read-out: % inhibition rate", "quoted_text": "as §1"}, "[27]": {"target": "JNK3 (Homo sapiens (Human), UniProt P53779)", "assay": "Kinase panel screening", "conditions": "read-out: % inhibition rate", "quoted_text": "as §1"}, "[28]": {"target": "KDR/VEGFR2 (Homo sapiens (Human), UniProt P35968)", "assay": "Kinase panel screening", "assay_type": "biochemical", "conditions": "read-out: % inhibition rate"}, "[29]": {"target": "JAK3 (Homo sapiens (Human), UniProt P52333)", "assay": "Kinase panel screening", "conditions": "read-out: % inhibition rate", "quoted_text": "as §1"}, "[30]": {"target": "MTOR/FRAP1 (Homo sapiens (Human), UniProt P42345)", "assay": "Kinase panel screening", "assay_type": "biochemical", "conditions": "read-out: % inhibition rate"}, "[31]": {"target": "SYK (Homo sapiens (Human), UniProt P43405)", "assay": "Kinase panel screening", "assay_type": "biochemical", "conditions": "single dose of 10 μM, read-out: % inhibition rate"}, "[32]": {"target": "MEK1 (Homo sapiens (Human), UniProt Q02750)", "sequence (Q02750 whole entry)": "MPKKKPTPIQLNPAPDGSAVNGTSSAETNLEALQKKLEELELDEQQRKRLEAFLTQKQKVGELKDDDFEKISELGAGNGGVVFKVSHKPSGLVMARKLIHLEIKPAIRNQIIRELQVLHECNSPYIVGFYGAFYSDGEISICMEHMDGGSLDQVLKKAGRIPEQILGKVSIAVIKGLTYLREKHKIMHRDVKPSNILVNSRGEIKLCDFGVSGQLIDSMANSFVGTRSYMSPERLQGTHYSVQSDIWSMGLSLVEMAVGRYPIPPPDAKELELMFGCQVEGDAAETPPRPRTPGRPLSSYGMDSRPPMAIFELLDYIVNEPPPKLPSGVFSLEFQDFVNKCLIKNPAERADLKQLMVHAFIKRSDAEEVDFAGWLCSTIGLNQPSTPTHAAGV", "assay": "Kinase panel screening", "conditions": "read-out: % inhibition rate", "quoted_text": "as §1"}, "[33]": {"target": "ALK (Homo sapiens (Human), UniProt Q9UM73)", "assay": "Kinase panel screening", "conditions": "read-out: % inhibition rate", "quoted_text": "as §1"}, "[34]": {"target": "ABL1 (Homo sapiens (Human), UniProt P00519)", "assay": "Kinase panel screening", "assay_type": "biochemical", "conditions": "read-out: % inhibition rate"}, "[35]": {"target": "ERK1 (Homo sapiens (Human), UniProt P27361)", "assay": "Kinase panel screening", "conditions": "read-out: % inhibition rate", "quoted_text": "as §1"}},
  "note": "Where two headings read alike, the source gives them in different places.",
  "data": [
    {"smiles": "Cc1oncc1C(=O)Nc1ccc2[nH]c(-c3cc(N4CCOCC4)cc(C(F)(F)F)c3)nc2c1", "note": "[Compound 5b, 5-methyl-N-(2-(3-morpholino-5-(trifluoromethyl)phenyl)-1H-benz[d]imidazol-5-yl)isoxazole-4-carboxamide]", "values": [
      {"measurement": "inhibition at 10 µM", "setting": "[1]", "result": 25.2, "unit": "%"},
      {"measurement": "inhibition at 10 µM", "setting": "[2]", "result": 6.4, "unit": "%"},
      {"measurement": "inhibition at 10 µM", "setting": "[3]", "result": 2.8, "unit": "%"},
      {"measurement": "inhibition at 10 µM", "setting": "[4]", "result": 2.86, "unit": "%"},
      {"measurement": "inhibition at 10 µM", "setting": "[5]", "result": 0, "unit": "%"},
      {"measurement": "inhibition at 10 µM", "setting": "[6]", "result": 73, "unit": "%"},
      {"measurement": "inhibition at 10 µM", "setting": "[7]", "result": 0, "unit": "%"},
      {"measurement": "inhibition at 10 µM", "setting": "[8]", "result": 19.3, "unit": "%"},
      {"measurement": "inhibition at 10 µM", "setting": "[9]", "result": 7.4, "unit": "%"},
      {"measurement": "inhibition at 10 µM", "setting": "[10]", "result": 0, "unit": "%"},
      {"measurement": "inhibition at 10 µM", "setting": "[11]", "result": 0, "unit": "%"},
      {"measurement": "inhibition at 10 µM", "setting": "[12]", "result": 2.76, "unit": "%"},
      {"measurement": "inhibition at 10 µM", "setting": "[13]", "result": 0, "unit": "%"},
      {"measurement": "inhibition at 10 µM", "setting": "[14]", "result": 0, "unit": "%"},
      {"measurement": "inhibition at 10 µM", "setting": "[15]", "result": 0, "unit": "%"},
      {"measurement": "inhibition at 10 µM", "setting": "[16]", "result": 0, "unit": "%"},
      {"measurement": "inhibition at 10 µM", "setting": "[17]", "result": 0, "unit": "%"},
      {"measurement": "inhibition at 10 µM", "setting": "[18]", "result": 10.9, "unit": "%"},
      {"measurement": "inhibition at 10 µM", "setting": "[19]", "result": 0, "unit": "%"},
      {"measurement": "inhibition at 10 µM", "setting": "[20]", "result": 15.7, "unit": "%"},
      {"measurement": "inhibition at 10 µM", "setting": "[21]", "result": 0, "unit": "%"},
      {"measurement": "inhibition at 10 µM", "setting": "[22]", "result": 0, "unit": "%"},
      {"measurement": "IC50", "setting": "[23]; FLT3 enzyme activity, read-out: FLT3 (IC50)", "result": "3 to 10", "unit": "µM"},
      {"measurement": "IC50", "setting": "[23]; FLT3 kinase activity, read-out: IC50 against FLT3", "result": 7.94, "unit": "µM"},
      {"measurement": "inhibition at 10 µM", "setting": "[24]", "result": 0, "unit": "%"},
      {"measurement": "inhibition at 10 µM", "setting": "[25]", "result": 2.38, "unit": "%"},
      {"measurement": "inhibition at 10 µM", "setting": "[26]", "result": 0, "unit": "%"},
      {"measurement": "inhibition at 10 µM", "setting": "[27]", "result": 0, "unit": "%"},
      {"measurement": "inhibition at 10 µM", "setting": "[28]", "result": 0, "unit": "%"},
      {"measurement": "inhibition at 10 µM", "setting": "[29]", "result": 0.94, "unit": "%"},
      {"measurement": "inhibition at 10 µM", "setting": "[30]", "result": 0, "unit": "%"},
      {"measurement": "inhibition at 10 µM", "setting": "[31]", "result": 2.18, "unit": "%"},
      {"measurement": "inhibition at 10 µM", "setting": "[32]", "result": 0, "unit": "%"},
      {"measurement": "inhibition at 10 µM", "setting": "[33]", "result": 0, "unit": "%"},
      {"measurement": "inhibition at 10 µM", "setting": "[34]", "result": 0, "unit": "%"},
      {"measurement": "inhibition at 10 µM", "setting": "[35]", "result": 0, "unit": "%"}
    ]}
  ]
}
